Measurements published in patent US8729053B2, “Nuclear factor kappa B pathway inhibitor composition and use of same” (The United States of America, as represented by the …, priority 2008, dated 2014).
Entries after “also recorded” stand apart in the source; their conditions may differ. Structures can show the parent of a compound that is named as a salt.

Legend:
RelB/p52 = test: Nuclear translocation of RelB/p52 and p100 processing, immunoblot; format: cell-based; conditions: HEK293
Description: (§1) To measure endogenous level of several proteins in response to TPA induction and compound I, HEK293 cells were lysed with RIPA buffer (10 mM Tris-HCl pH 7.5, 1 mM EDTA, 0.1% sodium dodecyl sulfate, 0.1% deoxycholate, and protease inhibitor). Whole cell extracts were subjected to immunoblot analysis with the following antibodies: p65 (F-6), p50 (E-10), p52 (C-5), RelB (C-19), IκBα (C-21), PCNA (F-2) were obtained from Santa Cruz Biotechnology (Santa Cruz, Calif.). IKKα, IKKβ, IKKγ, phospho-IκBα, phospho-IKKα/β, phospho-IKKγ, pohospho-Stat3 (Tyr 705 and Ser 727), phospho-p65 (Ser536 and Ser276), phospho-p44/42, phospho-JNKs were purchased from Cell Signaling (Danvers, Mass.), and α-tubulin from Sigma (St. Louis, Mo.). Nuclear and cytoplasmic extracts were prepared with HEK293 cells by NE-PER Nuclear and Cytoplasmic Extraction Reagents (Pierce Biotechnology, Rockford, Ill.) according to the manufacturer's protocol.
Nuclear translocation of endogenous p65/p50 and RelB/p52 heterodimers were monitored The activation of heterodimers p65/p50 and RelB/p52 occurs by distinct pathways dependent on IKKβ or IKKα catalytic activity. Repression of IKKβ would be expected to influence nuclear translocation of p65/p50 while repression of IKKα would influence processing of p100 to p52. […] However translocation of RelB is only dependent on IKKα for processing of its dimer partner p52 from p100. This processing depends on phosphorylation of p100 by IKKα. The processing of p100 to nuclear p52 was not inhibited by compound I but was proportional to expression levels of p100. Compound I inhibited expression of p100 by an unknown mechanism. […] Instead compound I inhibits IKKβ.

IKKγ = test: Immunoblot of phosphorylated IKKγ in HEK293 cells; format: cell-based; conditions: compound I pretreatment
Description: as §1
To characterize the activity of compound I in targeting events upstream of NFκB, endogenous levels of kinases involved in NFκB activation were examined by immunoblot analysis. The well-established upstream regulators of NFκB activation are IKKα, IKKβ, and IκBα. […] Moreover, the phosphorylation of IκBα was inhibited even at 1.1 μM showing dose-dependent decrease by compound I pretreatment. […]

Compound: Cc1cc(N)ccc1N=Nc1ccc(S(=O)(=O)CCOS(=O)(=O)O)cc1 [compound I, 2-(4-((4-amino-2-methylphenyl)diazenyl)phenylsulfonyl)ethyl hydrogen sulfate]
- Expression of p100 (RelB/p52): inhibited; also recorded: reduced
- Processing of p100 to nuclear p52 (RelB/p52): not inhibited; also recorded: did not inhibit
- TPA-induced nuclear translocation of RelB (RelB/p52; compound I pretreatment): remarkably repressed
- Phosphorylation of IKKγ (IKKγ): did not change
